Laboratory results published in US20020127282A1, “Multivalent silver pharmaceuticals” (priority 1991, published 2002).
Read-outs that look alike come from different tables or passages of the source.

What was measured:
Chorella species = format: cell-based; conditions: within 5 minutes; Chorella species incubated for 10 days in algae nutrient
Procedure: (§4) Select compounds of said moieties were also evaluated against algae utilizing Chorella species incubated for 10 days in algae nutrient. […] It was evaluated at 0.5 and 1.0 PPM on gram positive and negative cultures in the presence of 10 PPM sodium persulfate.

[1] = test system: Pseudomonas aeruginosa 9027; conditions: concentration not given
Procedure: (§1) More stringent testing was then performed in which the cultures were actually placed in trypticase soy nutrient broth, which allowed the pathogens being tested to replicate without being detached from its own food supply.

E. coli [2] = conditions: trypticase soy nutrient broth
Procedure: as §1

[3] = test system: Streptococcus faecalis strain 10541; conditions: trypticase soy nutrient broth
Procedure: as §1

[4] = test system: Enterobacter cloacac 13047; conditions: concentration not given
Bacillus subtilis 6633 = test system: Bacillus subtilis 6633
Procedure: (§2) Both the prepared and commercial materials were submitted for bactericidal evaluation following “good laboratory practice” regulations as set forth in Federal regulations (FIFRA and ffdca/40 CFR 150, May 2, 1984). The silver materials were tested as to whether they could kill pathogenic microorganisms with the intent of utilizing them in pharmaceutical applications. […] Strains of gram positive bacteria were chosen for the evaluation. One family of pathogens that are known for their deleterious effects on humans are popularly called “staph” infections. These infections are commonly contracted in hospitals having lax infectious screening procedures. Accordingly, three staph strains were selected as follows for evaluation: Staphylococcus aureus 9027 and 27543, and Staphylococcus epidermidis 12228. The inoculum nutrient broth was prepared according to AOAC specifications so as to contain 0.6-1 million organisms per drop of inoculum, each drop being equal to 0.05 ml. The broth itself was trypticase soy broth BBL 11766 prepared according to label instructions. Accordingly, the broth was prestandardized for the microorganisms in question in order to assure that the number of organisms remained constant within the margins of statistical allowance during the test period. […] Other gram positive bacteria pathogens were similarly evaluated.

[5] = test system: Staphylococcus epidermidis 12228; conditions: 24 hours at 34-35° C., 10 PPM sodium persulfate
Procedure: as §2

[6] = test system: Streptococcus pyogenes 7958
Procedure: as §2

[7] = test system: Candida albicans strain 16464; conditions: Sabouraud dextrose broth
Procedure: as §2

Micrococcus luteus 9341 = test system: Micrococcus luteus 9341
Procedure: as §2

Candida albercans = conditions: Sabouraud dextrose broth
[8] = test system: Saccharomycetpideae variety; conditions: Sabouraud dextrose broth
From the text: Silver tetroxide was further evaluated in analogous nutrient used for yeasts and molds, namely, Sabouraud dextrose broth.

Streptococcus faecalis = conditions: 0.5 PPM; within 0.5 minutes; 10 PPM sodium persulfate; AOAC protocol
Procedure: as §4

[9] = test system: Streptococcus ogalactiae 27956
Procedure: (§5) Once it could be determined that the devices inhibited a particular microorganism, the minimal concentration required of Ag4O4 was determined to inhibit the microorganism in nutrient broth. Strains of gram positive bacteria were chosen for the evaluation. […] Accordingly, three staph strains were selected as follows for evaluation: Staphylococcus aureus 9027 and 27543, and Staphylococcus epidermidis 12228. The inoculum nutrient broth was prepared according to AOAC specifications so as to contain 0.6-1 million organisms per drop of inoculum, each drop being equal to 0.05 ml. The broth itself was trypticase soy broth BBL 11766 prepared according to label instructions. Accordingly, the broth was prestandardized for the microorganisms in question in order to assure that the number of organisms remained constant within the margins of statistical allowance during the test period.

[10] = rabbits, dermal application
Procedure: (§3) Tests were conducted to see whether said tetroxide posed any harm to the human body. Accordingly, a 3% concentrate of the compound was prepared for a series of evaluations.
The second evaluation was for acute dermal toxicity in rabbits. The protocol, 40 CFR 158.135, 81-2, was to determine the LD50 for dermal application.

[11] = rats
Procedure: as §3
The first evaluation met the requirements of Code of Federal Regulations (40 CFR 160). It consisted of determining the single dose toxicity in rats or LD50.

Staphylococcus aureus = conditions: 24 hours at 34-35° C., 10 PPM sodium persulfate
Procedure: as §5

E. coli [12] = conditions: 0.5 PPM; within 0.5 minutes; 10 PPM sodium persulfate; AOAC protocol
Procedure: as §4

[13] = crystal concentrate applied
Procedure: as §3
The fourth evaluation dealt with primary eye irritation. This also was in conformity with 40 CFR 160.

[14] = albino rabbits, oxide concentrate
Procedure: as §3
The third evaluation, entitled “Primary Dermal Irritation in Albino Rabbits”, conformed to 40 CFR 160. It consisted of exposing the rabbits for prolonged periods of time and observing edema, erythema, ulceration, necrosis and any other evidence of dermal reactions or tissue destruction.

In the case of `[Ag+].[Ag+].[Ag+].[Ag+].[O-2].[O-2].[O-2].[O-2]` [Tetrasilver tetroxide], the “concentration effecting 100% kills of algae” value (Chorella species) is reported as “about 1 PPM”, the kills [1] is reported as 100% and the “concentration achieving 100% kills” value (E. coli [2]; E. coli strain 10231) is reported as 2.5 PPM. For the same compound, the “concentration achieving 100% kills” value (E. coli [2]; E. coli strain 25254) was 2.5 PPM, the “concentration achieving 100% kills” value [3] was 5.0 PPM and the kills [4] was 100%. For the same compound, the “minimal inhibiting concentration required for 100% kills” value (Bacillus subtilis 6633) was 5.00 PPM, the “minimal concentration to inhibit the microorganism” value [5] was 0.625 PPM and the “minimal inhibiting concentration required for 100% kills” value [6] was 2.50 PPM. The “concentration completely inhibiting growth” value [7] was 2.5 PPM, the “minimal inhibiting concentration required for 100% kills” value (Micrococcus luteus 9341) was 1.25 PPM and the “concentration at which totally killed” value (Candida albercans) was 2.5 PPM. For the same compound, the “concentration at which totally killed” value [8] was 1.25 PPM, the “kill of colonies of Streptococcus faecalis” value (Streptococcus faecalis) was 100% and the “minimal inhibiting concentration required for 100% kills” value [9] was 1.25 PPM. The “toxicity category (acute dermal)” value [10] was “category III”, the “dermal LD50” value ([10]; all animals survived maximum dose) was “greater than 2000 mg./Kg” and the FDA toxicity category ([11]; single dose toxicity) was “category IV”. The LD50 ([11]; single dose, 3% concentrate, all animals survived) was “greater than 5000 mg./Kg”, the “minimal concentration to inhibit the microorganism” value (Staphylococcus aureus; Staphylococcus aureus 9027) was 2.5 PPM and the “minimal concentration to inhibit the microorganism” value (Staphylococcus aureus; Staphylococcus aureus 27543) was 5.0 PPM. The “kill of colonies of E. coli” value (E. coli [12]) was 100%, the “FDA category for eye effects” value [13] was “category IV” and the eye irritation [13] was “no eye irritation”. The “FDA category as dermal agent” value [14] was “category IV” and the “dermal reactions (edema, erythema, ulceration, necrosis, tissue destruction)” value ([14]; prolonged exposure) was “none”.
